# In patent US20020035264A1, “Ophthalmic formulation of a selective cyclooxygenase-2 inhibitory drug” (priority 2000, published 2002):
# Entries after “also recorded” stand apart in the source; their conditions may differ.
# Experiment: Ocular versus oral delivery of valdecoxib nanoparticle suspensions; drug concentration in eye tissues and plasma by LC-MS
# Assay type: in vivo, New Zealand white rabbits
# Conditions: rabbit
# Procedure: Oral and ophthalmic suspensions of valdecoxib nanoparticles were prepared. […] The two carrageenan excipients are both ι-carrageenans with slightly different chemical and physical properties.
# Eighteen male New Zealand white rabbits weighing from 1.8-2.5 kg were provided as test animals and divided into three lots containing six rabbits each.
# Selected eye tissues, aqueous humor, bulbar conjunctiva, cornea, eyelids, vitreous humor and sclera, were excised at the time of sacrifice, weighed directly into tared vials, solubilized and/or diluted as necessary, and analyzed by HPLC-MS. Just prior to sacrifice, 0.5 mL of a blood sample was collected from the ear central artery via a syringe, placed into a K2-EDTA vacutainer, mixed gently and stored on ice up to one hour prior to centrifuging to separate the plasma. The plasma was stored at −10° C. or colder until analysis.
# [1] = four hours after administration, FIGS. 2 and 3
smiles,measurement,setting,value
"Cc1onc(-c2ccccc2)c1-c1ccc(S(N)(=O)=O)cc1 [valdecoxib, 4-[5-methyl-3-phenylisoxazol-4-yl]-benzenesulfonamide]","delivery of the drug to the eye (conjunctiva, cornea, aqueous humor concentration), ocular versus oral administration",[1],much more effective in delivering the drug to the eye than oral administration
same,"systemic (plasma) concentration of the drug, ocular versus oral administration",[1],avoids the high systemic (plasma) concentration
same,"concentration of the drug in the conjunctiva versus time, ocular versus oral delivery","single ocular dose 25 μL ophthalmic suspension per eye (about 0.1 mg) vs oral 0.5 mg/kg, 0.5, 2 and 4 hours, FIG. 1, 0.5 mg/kg",much higher initial concentration; also recorded: maintained this higher concentration over time
